From patent US10098853B2, “Composition for treating atherosclerosis and a preparation method thereof” (KAOHSIUNG MEDICAL UNIVERSITY, priority 2011, dated 2018)
Entries after “also recorded” stand apart in the source; their conditions may differ. Blank lines part the entries; values can stand above or below the compound they belong to.

What was measured:
cyclin D3 = assay: Cyclin D3 protein expression in Ox-LDL treated HASMCs (immunoblotting); format: cell-based, human; details: FIG. 9, PD98059 10^−5 M, compound 1 5 μg/ml, rosiglitazone 5 μg/ml, Ox-LDL 30 μg/ml, 8 hours
Text: (§1) Three independent experiments are made in each group.

Ki-67 protein = Ki-67 protein immunofluorescence in Ox-LDL stimulated HASMCs; format: cell-based, human; details: Ox-LDL 30 μg/ml, 24 hours; for positive stains of Ki-67: compound 1 5 μg/ml or PD98059 10^−5 M
Experimental: For analyzing the mechanisms of compound 1 on inhibiting HASMCs proliferation, the cellular marker for proliferation, Ki-67 protein (also known as MKI67), detected with green fluorescence was the index for HASMCs proliferation. The experiment method was to stimulate HASMCs with Ox-LDL (30 μg/ml) for 24 hours, and simultaneously compound 1 (5 μg/ml) or PD98059 (an ERK 1/2 inhibitor, 10^−5 M) was added. A mouse anti-Ki-67 monoclonal antibody was combined with a DyLight™488-conjugated second antibody to confirm the HASMCs proliferation. DAPI (4′,6-diamidino-2-phenylindole), a fluorescent stain that binds strongly to DNA, was used to localize cell nuclei. Cells were observed under flourescence microscopy. The proliferative cells were quantified by counting the ratio of DyLight™488 (green) fluorescence and DAPI (blue) fluorescence.

cyclin D1 = assay: Cyclin D1 protein expression in Ox-LDL treated HASMCs (immunoblotting); format: cell-based, human; details: FIG. 9, PD98059 10^−5 M, compound 1 5 μg/ml, rosiglitazone 5 μg/ml, Ox-LDL 30 μg/ml, 8 hours
Text: as §1

[1] = tested on: human aortic smooth muscle cells (HASMCs); assay: HASMCs proliferation induced by LPS (WST-1); format: cell-based
Experimental: First, HASMCs were seeded into 96-well plates.
Chalcone compounds 1 to 29 at different concentrations prepared in Experiment 1 were used to determine the effect of HASMCs proliferation induced by LPS. […] In reference to the drug concentration for cytotoxicity that HASMCs tolerate, the chalcone compounds having the relevant substituents to compound 1 were selected (rather than all chalcone compounds) to compare with each other at the same concentration.

PPARγ [2] = assay: PPARγ mRNA expression in HASMCs (real-time PCR); format: cell-based, human
Experimental: The anti-inflammatory effect of compound 1 was determined by the mRNA expressions of IL-1β and IL-6. HASMCs were stimulated with Ox-LDL (30 μg/ml) for 8 hours, and simultaneously treated with (i) PD98059 (5 μg/ml), (ii) rosiglitazone (5 μg/ml), (iii) compound 1 (5 μg/ml) and (iv) rosiglitazone (5 μg/ml) plus compound 1 (5 μg/ml). […] SEQ ID Nos: 1 and 2 were paired in amplification of IL-1β gene, SEQ ID Nos: 3 and 4 were paired in amplification of IL-6 gene, SEQ ID Nos: 5 and 6 were paired in amplification of PPARα gene, SEQ ID Nos: 7 and 8 were paired in amplification of PPARγ gene, and SEQ ID Nos: 9 and 10 were paired in amplification of β-actin gene.
This experiment was performed to investigate the regulatory mechanism of compound 1 on PPARγ based on PPARγ mRNA expression in HASMCs. […]

[3] = tested on: human aortic smooth muscle cells (HASMCs); assay: HASMCs proliferation and cell viability induced by Ox-LDL (WST-1); details: FIG. 2; 1, 2.5 and 5 μg/ml, Ox-LDL 30 μg/ml, 24 hours
Experimental: For analyzing whether each genus of flavonoid compounds could inhibit the activity of HASMCs proliferation, the proliferation and cell viability of HASMCs were determined using WST-1 reagent (Roche Applied Science, Penzberg, Germany). WST-1 is a tetrazolium salt that will be cleaved to formazan by mitochondrial dehydrogenases in viable cells. First, HASMCs were seeded into 96-well plates. […] At the end of incubation, WST-1 was added into cell medium and the amount of formazan was measured at a wavelength of 450 nm by an ELISA reader.

PPARγ [4] = assay: PPARγ protein expression in HASMCs (immunoblotting); format: cell-based, human; details: FIG. 7(b); compound 1 alone, 0, 1, 2.5 and 5 μg/ml, 4 and 8 hours
Experimental: FIG. 7(a) and FIG. 7(b) respectively are (a) the diagram showing PPARγ mRNA expression and (b) an immunoblotting spectrum showing the PPARγ protein expression of compound 1 (0, 1, 2.5 and 5 μg/ml) on HASMCs for 4 and 8 hours. Data are represented as mean±S.D. in three independent experiments. a: p<0.001, b: p<0.01.
To further confirm whether compound 1 is an inducer of PPARγ for HASMCs, cells were stimulated with compound 1 alone.

PPARα = PPARα mRNA expression in HASMCs (real-time PCR); format: cell-based, human; details: FIG. 6(b); with Ox-LDL 30 μg/ml, compound 1 5 μg/ml, 2, 4, 8 and 24 hours

- positive stains of Ki-67 (Ki-67 protein): decreased the positive stains of Ki-67
SMILES: COc1cccc(-c2cc(=O)c3ccccc3o2)c1N [PD98059, 2-(2-amino-3-methoxyphenyl)-chromen-4-one]
- cyclin D3 protein expression induced by Ox-LDL (cyclin D3): did not significantly decrease cyclin D1 and D3 protein expression; also recorded: but not PD98059 and rosiglitazone, significantly decreased the cyclin D1 and D3 upregulation
- cyclin D1 protein expression induced by Ox-LDL (cyclin D1): did not significantly decrease cyclin D1 and D3 protein expression; also recorded: but not PD98059 and rosiglitazone, significantly decreased the cyclin D1 and D3 upregulation

SMILES: O=C(/C=C/c1ccc(O)cc1)c1ccccc1 [compound 29]
- inhibition activity on HASMCs proliferation induced by LPS ([1]; FIG. 11(c), 2 μg/ml): had no inhibition activity

SMILES: COc1ccc(/C=C/C(=O)c2ccccc2I)cc1 [compound 26]
- inhibition activity on HASMCs proliferation induced by LPS ([1]; FIG. 11(b), 2.5 μg/ml): slightly better than that of compounds 26 and 28

SMILES: COc1cccc(/C=C/C(=O)c2ccccc2O)c1 [compound 4]
- inhibition activity on HASMCs proliferation induced by LPS ([1]; FIG. 11(a), 5 μg/ml): both had the similar inhibition activity

- positive stains of Ki-67 (Ki-67 protein): decreased the positive stains of Ki-67
SMILES: COc1ccc(/C=C/C(=O)c2ccccc2O)cc1 [compound 1]
- time at which maximum PPARγ mRNA expression was reached (PPARγ [2]; FIG. 6(a), with Ox-LDL 30 μg/ml, compound 1 5 μg/ml): 8 h
- PPARγ mRNA expression (PPARγ [2]; FIG. 6(a), with Ox-LDL 30 μg/ml, compound 1 5 μg/ml, 2, 4, 8 and 24 hours): significantly increased PPARγ mRNA expression post 4 hours administration
- PPARγ mRNA expression (PPARγ [2]; FIG. 7(a), compound 1 alone, 0, 1, 2.5 and 5 μg/ml, 4 and 8 hours): significantly increased PPARγ mRNA and protein expression in dose and time dependent manners
- inhibition activity on HASMCs proliferation induced by LPS ([1]; FIG. 11(a), 5 μg/ml): compound 1 rather than compound 7 has inhibition activity
- inhibition activity on HASMCs proliferation induced by LPS ([1]; FIG. 11(b), 2.5 μg/ml): compound 1 rather than compound 5 had inhibition activity
- cytotoxicity to HASMCs ([1]; FIG. 11(c), 2 μg/ml): non-toxic to cells
- inhibition activity on HASMCs proliferation induced by LPS ([1]; FIG. 11(c), 2 μg/ml): had the best inhibition activity
- cyclin D3 protein expression induced by Ox-LDL (cyclin D3): significantly inhibited cyclin D1 and D3 protein upregulation induced by Ox-LDL
- cyclin D3 protein expression induced by Ox-LDL (cyclin D3; listed as Compound 1): significantly decreased the cyclin D1 and D3 upregulation
- reduction of proliferative (Ki-67 positive) cells compared to Ox-LDL stimulated HASMCs (Ki-67 protein; FIG. 3, 5 μg/ml): about 10%
- cell proliferation compared to Ox-LDL treatment group [3]: significantly decreased in a dose dependent manner
- PPARγ protein expression (PPARγ [4]): significantly increased PPARγ mRNA and protein expression in dose and time dependent manners
- cyclin D1 protein expression induced by Ox-LDL (cyclin D1): significantly inhibited cyclin D1 and D3 protein upregulation induced by Ox-LDL
- cyclin D1 protein expression induced by Ox-LDL (cyclin D1; listed as Compound 1): significantly decreased the cyclin D1 and D3 upregulation
- PPARα mRNA expression (PPARα): neither Ox-LDL nor compound 1 stimulated PPARα mRNA upregulation

SMILES: COc1cccc(/C=C/C(=O)c2ccc(Cl)cc2)c1 [compound 15]
- cytotoxicity to HASMCs ([1]; FIG. 11(c), 2 μg/ml): would lead to death of a part cells

SMILES: COc1ccc(/C=C/C(=O)c2ccccc2F)cc1 [compound 27]
- inhibition activity on HASMCs proliferation induced by LPS ([1]; FIG. 11(b), 2.5 μg/ml): inhibition activity of compound 1 was better than those of compounds 12 and 27

SMILES: COc1ccc(/C=C/C(=O)c2ccccc2Cl)cc1 [compound 28]
- inhibition activity on HASMCs proliferation induced by LPS ([1]; FIG. 11(b), 2.5 μg/ml): slightly better than that of compounds 26 and 28

SMILES: COc1cccc(/C=C/C(=O)c2ccccc2)c1 [compound 8]
- inhibition activity on HASMCs proliferation induced by LPS ([1]; FIG. 11(c), 2 μg/ml): did not have inhibition activity

SMILES: COc1cccc(/C=C/C(=O)c2ccc(O)cc2O)c1 [compound 6]
- inhibition activity on HASMCs proliferation induced by LPS ([1]; FIG. 11(c), 2 μg/ml): compound 3 rather than compound 6 had inhibition activity

SMILES: O=C(/C=C/c1ccc(OCc2ccccc2)cc1)c1ccccc1O [compound 25]
- cytotoxicity to HASMCs ([1]; FIG. 11(a), 5 μg/ml): would result in HASMC death

SMILES: COc1cccc(/C=C/C(=O)c2cccc(Br)c2)c1 [compound 14]
- inhibition activity on HASMCs proliferation induced by LPS ([1]; FIG. 11(b), 2.5 μg/ml): compound 12 rather than compound 14 had inhibition activity

SMILES: O=C(/C=C/c1ccccc1)c1ccccc1O [compound 10]
- inhibition activity on HASMCs proliferation induced by LPS ([1]; FIG. 11(b), 2.5 μg/ml): did not have inhibition activity

SMILES: CN(CCOc1ccc(CC2SC(=O)NC2=O)cc1)c1ccccn1 (racemic) [rosiglitazone, (RS)-5-[4-(2-[methyl(pyridin-2-yl)amino]ethoxy)benzyl]thiazolidine-2,4-dione]
- cyclin D3 protein expression induced by Ox-LDL (cyclin D3): did not significantly decrease cyclin D1 and D3 protein expression; also recorded: but not PD98059 and rosiglitazone, significantly decreased the cyclin D1 and D3 upregulation
- cyclin D1 protein expression induced by Ox-LDL (cyclin D1): did not significantly decrease cyclin D1 and D3 protein expression; also recorded: but not PD98059 and rosiglitazone, significantly decreased the cyclin D1 and D3 upregulation

SMILES: COc1ccc(/C=C/C(=O)c2ccc(O)cc2O)cc1 [compound 5]
- inhibition activity on HASMCs proliferation induced by LPS ([1]; FIG. 11(b), 2.5 μg/ml): compound 1 rather than compound 5 had inhibition activity

SMILES: O=C(/C=C/c1ccc(OCc2ccccc2)cc1)c1cc(Br)ccc1O [compound 23]
- cytotoxicity to HASMCs ([1]; FIG. 11(a), 5 μg/ml): would lead to death of a part of cells
- inhibition activity on HASMCs proliferation induced by LPS ([1]; FIG. 11(a), 5 μg/ml): had inhibition activity

SMILES: O=C(/C=C/c1cccc(OCc2ccccc2)c1)c1ccccc1O [compound 11]
- cytotoxicity to HASMCs ([1]; FIG. 11(c), 2 μg/ml): would lead to death of a part cells

SMILES: O=C(/C=C/c1ccccc1)c1ccc(O)cc1O [compound 2]
- cytotoxicity to HASMCs ([1]; FIG. 11(c), 2 μg/ml): would lead to death of a part cells

SMILES: O=C(/C=C/c1ccccc1)c1cc(Br)ccc1O [compound 19]
- cytotoxicity to HASMCs ([1]; FIG. 11(a), 5 μg/ml): would lead to death of a part of cells
- inhibition activity on HASMCs proliferation induced by LPS ([1]; FIG. 11(a), 5 μg/ml): had inhibition activity

SMILES: COc1cccc(/C=C/C(=O)c2cc(Br)ccc2O)c1 [compound 21]
- cytotoxicity to HASMCs ([1]; FIG. 11(a), 5 μg/ml): would lead to death of a part of cells
- inhibition activity on HASMCs proliferation induced by LPS ([1]; FIG. 11(a), 5 μg/ml): had inhibition activity

SMILES: O=C(/C=C/c1ccccc1)c1ccccc1 [compound 9]
- inhibition activity on HASMCs proliferation induced by LPS ([1]; FIG. 11(c), 2 μg/ml): showed no inhibition activity

SMILES: COc1ccc(/C=C/C(=O)c2cc(Br)ccc2O)cc1 [compound 20]
- cytotoxicity to HASMCs ([1]; FIG. 11(a), 5 μg/ml): would lead to death of a part of cells
- inhibition activity on HASMCs proliferation induced by LPS ([1]; FIG. 11(a), 5 μg/ml): had inhibition activity

SMILES: COc1ccc(/C=C/C(=O)c2ccccc2Br)cc1 [compound 12]
- inhibition activity on HASMCs proliferation induced by LPS ([1]; FIG. 11(b), 2.5 μg/ml): compound 12 rather than compound 14 had inhibition activity

SMILES: COc1ccc(/C=C/C(=O)c2ccccc2)cc1 [compound 7]
- inhibition activity on HASMCs proliferation induced by LPS ([1]; FIG. 11(a), 5 μg/ml): compound 1 rather than compound 7 has inhibition activity

SMILES: O=C(/C=C/c1ccc(OCc2ccccc2)cc1)c1ccc(O)cc1O [compound 3]
- inhibition activity on HASMCs proliferation induced by LPS ([1]; FIG. 11(c), 2 μg/ml): compound 3 rather than compound 6 had inhibition activity

SMILES: O=C(/C=C/c1cccc(OCc2ccccc2)c1)c1cc(Br)ccc1O [compound 22]
- cytotoxicity to HASMCs ([1]; FIG. 11(c), 2 μg/ml): would lead to death of a part cells
